Test system: Polycyclic aromatic hydrocarbon binding protein
Details: Mus musculus
Description: Competition for [3H]benzo[a]pyrene-binding site of polycyclic aromatic hydrocarbon binding protein (PBP) from mouse liver
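Note: competitive displacement of radiolabeled [3H]benzo[a]pyrene from its binding site on the protein taken from mouse liver.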

| SMILES | Delta Gm |
| --- | --- |
| c1cc2ccc3cccc4ccc(c1)c2c34 | 16.3 |
| Nc1cccc2ccccc12 | 14.4 |
| c1ccc2c(c1)-c1cccc3cccc-2c13 | 17.8 |
| c1ccc2cc3c4ccccc4c4ccccc4c3cc2c1 | 18.6 |
| c1ccc2c(c1)ccc1c3ccccc3ccc21 | 17.9 |
| Cc1ccc2cc3c(ccc4ccccc43)c3c2c1CC3 | 17.4 |
| Nc1cc2ccccc2c2ccccc12 | 15.2 |
| c1ccc2c(c1)cc1ccc3cccc4ccc2c1c34 | 19 |
| C1=Cc2cc3cccc4ccc5ccc1c2c5c43 | 15.8 |
| Nc1ccc2c(c1)Cc1ccccc1-2 | 11.9 |
| Nc1cccc2cc3ccccc3cc12 | 15.2 |
| Oc1ccc2cc3ccc4cccc5ccc(c2c1)c3c45 | 18.3 |
| O[C@H]1C=Cc2c(cc3ccc4cccc5ccc2c3c45)[C@@H]1O | 18.4 |
| O[C@H]1C=C2c3ccccc3-c3cccc(c32)[C@@H]1O | 17.7 |
| O[C@H]1c2cccc3ccc4c5ccccc5cc(c4c23)[C@@H]1O | 17.4 |
| O[C@@H]1C=Cc2cc3ccc4cccc5ccc(c2[C@H]1O)c3c45 | 18.9 |
